For data set [1] the following is noted: under similar conditions; Burri et al. (2011); cited from earlier work.
The next data set concerns OVX rat model. Nature of the data set: Anti-resorptive / anti-osteoporotic activity in OVX rat model (overall conclusions). Type of data set: in vivo, Wistar rats.

Take `CC1=C(/C=C/C(C)=C/C=C/C(C)=C/C=C/C=C(C)/C=C/C=C(C)/C=C/C2=C(C)CC(O)CC2(C)C)C(C)(C)CCC1` (stereo not drawn) [beta-cryptoxanthin, beta,beta-caroten-3-ol]: the “Bioavailability relative to beta-carotene” value in data set [1] is recorded as approximately 7 fold. Besides, the Anti-osteoporotic activity entry with OVX rat model is given as “significant anti-osteoporotic activity”.

The record behind these values is patent publication US10301259B2, “Beta-cryptoxanthin from plant source and a process for its preparation” (OMNIACTIVE HEALTH TECHNOLOGIES LIMITED, priority 2013, dated 2019).
